Source: publication PMC6814738, “Bacterial MgrB peptide activates chemoreceptor Fpr3 in mouse accessory olfactory system and drives avoidance behaviour” (Nature Communications, 2019)
Entries after “also recorded” stand apart in the source; their conditions may differ. Peptide text beside a SMILES is read from it. * marks the point of attachment. For = O=C*

Legend:
mouse Fpr3 = settings: cited from earlier work
Procedure: We estimate the fraction of knobs responding to f-MKKFRW as ~0.15%, which is similar to the fraction of cells in the VNE that express Fpr3[30]. Strikingly, the sensitivity and sequence-selectivity profile of these responses was nearly identical to the results that we obtained for heterologously expressed Fpr3. The detection threshold of native VSNs for f-MKKFRW was ≤0.1 µM (Fig. 4f), virtually the same as for Fpr3-expres ... || Given the importance of the olfactory system in a variety of behavioural avoidance and defence mechanisms[14],[62],[63], we reasoned that in vivo detection of MgrB peptide may evoke an avoidance reaction in mice. We devised a behavioural assay[14],[60] in order to determine whether direct nasal contact with MgrB peptide evokes unconditioned, innate avoidance (Fig. 8a and Methods). […] (Fig ... || We used custom-made peptides with a length of 6–21 amino acids to screen for agonists. Sequences of fMet peptides were designed according to motifs present at the N-termini of 15,125 specific bacterial proteins as annotated in UniProt. Peptides were chemically synthesised, purified, and verified by mass spectroscopy (MALDI-TOF) by commercial suppliers. Purity of all peptides was >95%. Source, sequence and purity of each peptide are listed in Supplementary Data 1. Lyophilised peptides were routinely dissolved in the Ca^2+ imaging assay buffer C1 (130 mM NaCl, 10 mM HEPES, 5 mM KCl, 2 mM CaCl2, ...

Fpr3-expressing VSNs = experiment: Egr1 induction in Fpr3-positive VSNs after oronasal peptide application, RNAscope (Fig. 7c, e); assay type: in vivo, mouse; settings: 100 µM, male B6 mice
Procedure: For each mouse, serial coronal VNO cryosections (12 µm) were collected as two alternate sets, each representing every second section of the whole VNO. One set was subjected to RNAscope in situ hybridisation using the RNAscope Fluorescent Multiplex Detection Kit (ACD Bio-Techne) and specific probes for Fpr3 and LacZ according to the manufacturer’s protocol. Sections were incubated in 1 x citrate buffer pH 6.0 (DAKO, Germany) for 5 min at 98 °C in a coplin jar, rinsed twice in distilled water, dehydrated in 100% ethanol, and air dried prior to protease III treatment for 30 min at 40 °C. After rinsing in distilled water, sections were simultaneously hybridised with RNA scope target probes generated for mouse Fpr3 and E.coli LacZ (ACD Bio-Techne). The Fpr3 probe was designed as channel 1 probe containing 7 ZZ structures targeting base pairs 456–1143 of NM_008042.2, specific to mouse Fpr3. The LacZ probe, designed as channel 3 probe contains 30 ZZ structures targeting the region 279–1790 bp of KC847299.1 (cat# 313451-C3). […] Following hybridisation (2 h, 40 °C), sections were rinsed twice for 2 min in wash buffer (ACD Bio-Techne), and sequentially treated with amplification solutions at 40 °C (30 min Amp1-FL, 15 min Amp2-FL, 30 min Amp3-FL) and fluorescence reagent (15 min, 40 °C Amp4-altC), with intermitting washing steps at room temperature between reagents. Cell nuclei were stained with DAPI solution (ACD Bio-Techne) for 1 min, and tissue sections were mounted with DAKO fluorescence medium and stored for 12 h at 4 °C. Fluorescence images of the RNAscope results were acquired from each section using a Zeiss LSM 880 confocal microscope containing a 32-channel GaAsP-PMT and 2-channel PMT QUASAR detector.
We stimulated adult male B6 mice with f-MKKFRW (100 µM) and performed double-labelling RNAscope in situ hybridisation for Fpr3 and the immediate early gene Egr1 on VNO tissue sections. […] VNO tissue was prepared for RNAscope fluorescence in situ hybridisation as described above using Fpr3 and Egr1 probes simultaneously. […]

f-MGFFIS [bacterial signal peptide fragment]
activation of heterologously expressed Fpr3, in words (mouse Fpr3): not Fpr3; also recorded: failed to activate heterologously expressed Fpr3

CSCC[C@H](NC=O)C(=O)N[C@@H](CCCCN)C(=O)N[C@@H](CCCCN)C(=O)N[C@@H](Cc1ccccc1)C(=O)N[C@@H](CCCNC(=N)N)C(=O)N[C@@H](Cc1c[nH]c2ccccc12)C(=O)O [f-MKKFRW] (For-MKKFRW-OH)
Egr1-positive / Fpr3-positive VSNs (Fpr3-expressing VSNs; oronasal): 145/317 | fraction of Fpr3-positive VSNs co-localised with Egr1 (Fpr3-expressing VSNs; oronasal, mean ± s.d.): 0.46 ± 0.11 | Egr1 induction in Fpr3-positive VSNs (Fpr3-expressing VSNs; oronasal or voluntary uptake, both types of experiments): ~ 50%
